Source: ChEMBL document CHEMBL1201862, “PubChem BioAssay data set” (2004)
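96-well plates; 48 h exposure; 5 concentrations. Endpoints by linear interpolation between flanking doses. Not reached: highest tested concentration assigned. The concentration for 50% growth inhibition is given as GI50.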 The source made the active and inactive calls. Rule as the data show it: active = GI50 up to about 1.1 µM and inactive = higher.

Key:
Experiment in all cases: inhibition of tumour cell growth, NCI panel, 48 h
DLD-1 = system: DLD-1
DMS-273 = system: DMS-273
XF498 = system: XF498
KM-20L2 = system: KM-20L2
HOP-18 = system: HOP-18
M19-MEL = system: M19-MEL
SNB-78 = system: SNB-78
LXFL 529 = system: LXFL 529
RXF 631 = system: RXF 631

Measured: GI50

Cc1c2cnccc2c(C)c2c1c1ccccc1n2CCOC(=O)c1ccccc1
inactive: DLD-1 7.69 µM | DMS-273 4.86 µM | XF498 3.27 µM | KM-20L2 6.44 µM | HOP-18 20.7 µM | M19-MEL 13.9 µM | SNB-78 12.2 µM

CC12CCC(=O)N1[C@@H](c1ccccc1)[C@@H](c1ccccc1)O2 (some centres undefined)
inactive: DLD-1 44 µM | XF498 > 100 µM | KM-20L2 > 100 µM | M19-MEL > 100 µM | LXFL 529 > 100 µM

COc1ccc(C2=NN(c3ccccc3)C[N+](c3ccc(OC)cc3)=N2)cc1
inactive: DLD-1 28.8 µM | DMS-273 24.5 µM | XF498 18.8 µM | KM-20L2 29.6 µM | M19-MEL 30.5 µM | SNB-78 28.2 µM | LXFL 529 17.2 µM

CN1N=C2c3ccccc3CC[C@H]2C1c1ccccc1 (some centres undefined)
inactive: DLD-1 41.8 µM | DMS-273 26.6 µM | KM-20L2 36.9 µM | HOP-18 > 100 µM | M19-MEL 15.7 µM | SNB-78 83.9 µM | LXFL 529 15.4 µM

COC(=O)C(Cc1nc2ccc(Cl)cc2nc1O)/C(=N/NC(N)=O)C(=O)Nc1ccc(Cl)cc1 (centres undefined)
inactive: DMS-273 > 100 µM | RXF 631 > 100 µM | XF498 > 100 µM | KM-20L2 > 100 µM | HOP-18 > 100 µM | M19-MEL > 100 µM | SNB-78 > 100 µM | LXFL 529 > 100 µM

CCC(=O)OCOc1ccc(/C=C2\CCC(CN(C)C)C2=O)cc1 (centres undefined)
inactive: DLD-1 2.19 µM | DMS-273 3.97 µM | RXF 631 8.34 µM | XF498 2.14 µM | KM-20L2 13.1 µM | HOP-18 15.4 µM | M19-MEL 4.47 µM | SNB-78 9.68 µM | LXFL 529 2.94 µM

COc1ccccc1/C=C1\C(=O)N(C(=O)Cc2ccccc2)N=C1C
inactive: DLD-1 > 100 µM | DMS-273 > 100 µM | XF498 > 100 µM | HOP-18 13.1 µM | M19-MEL > 100 µM | SNB-78 > 100 µM

CC(C)(CN1CCCCC1)C(=O)/C=C/c1ccc(Cl)c(Cl)c1
inactive: DLD-1 1.67 µM | DMS-273 1.69 µM | RXF 631 1.72 µM | HOP-18 1.52 µM | M19-MEL 1.63 µM | SNB-78 1.51 µM | LXFL 529 1.46 µM

COc1cccc(Cc2c3cc(OC)ccc3cc[n+]2C)c1
inactive: DLD-1 > 100 µM | XF498 12.4 µM | KM-20L2 65.5 µM | SNB-78 > 100 µM | LXFL 529 36.4 µM

COc1cc2c(cc1OC)C(=O)Cc1ccc(OC)c(OC)c1CN(C)CC2
inactive: DLD-1 > 100 µM | DMS-273 > 100 µM | RXF 631 > 100 µM | XF498 24.5 µM | KM-20L2 > 100 µM | HOP-18 32.4 µM | M19-MEL > 100 µM | SNB-78 > 100 µM | LXFL 529 > 100 µM

CSc1nc2c(nc(C)c(=O)n2C2OCC(OC(C)=O)C(OC(C)=O)C2OC(C)=O)c(=O)[nH]1 (centres undefined)
inactive: DLD-1 > 100 µM | DMS-273 > 100 µM | XF498 > 100 µM | KM-20L2 > 100 µM | M19-MEL > 100 µM | LXFL 529 > 100 µM

Cc1cccc(C(C)C)c1N1C(=O)C(=O)C(c2nc3ccccc3o2)C(=O)C1=O
inactive: DLD-1 39.4 µM | DMS-273 93.8 µM | RXF 631 27.2 µM | XF498 21.1 µM | KM-20L2 35.4 µM | HOP-18 > 100 µM | M19-MEL 55.3 µM | SNB-78 > 100 µM | LXFL 529 61.1 µM

C/C=C(\NC(=O)C(CCCCN)NC(=O)C(C)NC(=O)C1CSC(C)C(NC(=O)C2CSCC(NC(=O)C(C)NC(=O)C(N)C(C)CC)C(=O)NC(CCCCN)C(=O)NC(Cc3ccccc3)C(=O)NC(CC(C)C)C(=O)N2)C(=O)N2CCCC2C(=O)NCC(=O)N1)C(=O)NCC(=O)NC1CSCC2NC(=O)C(Cc3ccc(O)cc3)NC(=O)C(CSC=CNC2=O)NC(=O)C(CC(N)=O)NC(=O)C(Cc2ccccc2)NC1=O (centres undefined)
inactive: DLD-1 > 100 µM | DMS-273 57.1 µM | XF498 > 100 µM | M19-MEL 67.8 µM | SNB-78 > 100 µM | LXFL 529 > 100 µM

CN1c2ccccc2N(C)C2C1N(C)c1ccccc1N2C (centres undefined)
inactive: DLD-1 14.1 µM | DMS-273 8.75 µM | RXF 631 37.1 µM | XF498 7 µM | KM-20L2 15.7 µM | M19-MEL 6.84 µM | SNB-78 18.9 µM | LXFL 529 12.6 µM

CCOC(=O)[C@H]1Nc2ccccc2C2c3ccccc3CC21 (some centres undefined)
inactive: DLD-1 51.4 µM | DMS-273 74 µM | RXF 631 > 100 µM | XF498 > 100 µM | KM-20L2 39.4 µM | M19-MEL 74.3 µM | SNB-78 > 100 µM | LXFL 529 41.6 µM

O=C1OC(CC(=O)c2ccc(Cl)cc2)C(Cl)=C1Cl (centres undefined)
inactive: DLD-1 52.6 µM | DMS-273 > 100 µM | XF498 > 100 µM | KM-20L2 > 100 µM | HOP-18 > 100 µM | M19-MEL > 100 µM | LXFL 529 > 100 µM
